Reference: patent US12109222B2, “Methods and compositions for treating mucositis” (Tosk, Inc., priority 2018, dated 2024)
“Also recorded” adds a separate entry of the source.

Experiments:
[1] = cited from earlier work
[2] = man and animals; cited from earlier work
5-FU induced weight loss = assay: Protection from 5-FU induced weight loss by uridine alone or uridine plus TK-90; format: in vivo, CD-1 mice
From the text: Weight loss is one of the cardinal features of mucositis. […] Controls include PBS alone at times mimicking the time for 5-FU and combined uridine and TK-90 treatments. There were n=6 animals in all groups.

[3] = Side effects of TK-90 (clinical trials); details: in vivo
[4] = test system: weight loss induced by 5-FU; details: 400 mg/kg 5-FU ip Day 0 plus 5333 mg/kg sc TK-90 by osmotic pump over 24 hours; compared to 5-FU alone
Protocol: The chemotherapeutic challenge was weight loss induced by 5-FU (FIG. 2). […] The aim of this study was to explore whether 5-FU combined with a uridine phosphorylase inhibitor provides protection from weight loss, a principal toxicity of 5-FU.
Groups of CD-1 female mice entrained to light:dark (12:12 hours), and given food and water ad libitum, were used for this experiment. The mean weight of the mice at the start of the experiment was approximately 20 g. Control mice were injected ip with sterile PBS, the vehicle control (Group 1). Group 2 and Group 3 mice were injected, ip, with 400 mg/kg 5-FU (Sigma) dissolved in PBS. A 24-hour osmotic pump (ALZET® micro-osmotic pump, Alza Co) was implanted into Group 3 animals. The pumps were loaded with 200 μL (2001D osmotic pump) of a 500 mg/mL solution of TK-90 (FIG. 2) in PBS. The TK-90 dose over the 24-hour infusion was 5333 mg/kg. The four animals were used for Group 1 and 8 animals were used for Groups 2 and 3.
For the implantation of the osmotic pump, animals were anesthetized with 100 mg/kg ketamine prior to pump implantation. […]
Animals were sacrificed on Day 5 by cervical dislocation and properly disposed. Animal weights were recorded daily for 6 days and the percent difference between Day 0 and Day 5 at termination was calculated.

[5] = test system: panel of cytokines and related biochemicals; assay: Plasma cytokine changes induced by 5-FU, multiplex ELISA on plasma of Experiment III; format: in vivo, C57BL/6 female mice; details: Day 3; 200 mg/kg 5-FU ip plus 6000 mg/kg TK-90 osmotic pump over 24 hours; vs 5-FU alone
Protocol: The chemotherapeutic challenge was cytokine changes induced by 5-FU treatment.
Plasma samples from Experiment III were analyzed for a panel of cytokines and related biochemicals by multiplex ELISA. […] IL-1B, TNF-α, and IL-6 are pro-inflammatory cytokines known to be elevated with mucositis. (Logan et al., “The role of pro-inflammatory cytokines in cancer treatment-induced alimentary tract mucositis: pathobiology, animal models and cytotoxic drugs,” Cancer Treat Rev. (2007) 33(5):448-60; Ong et al., “Pro-inflammatory cytokines play a key role in the development of radiotherapy-induced gastrointestinal mucositis,” Radiat Oncol. (2010) (16) 5:22). TK-90 reverses elevation of all three of these cytokines (FIGS. 5, 6 and 7). IL-2 is a pleiotropic cytokine that drives growth and activation of inflammatory cells such as T-cells, NK cells, etc. IL-9 and IL-15 signal through IL-2. TK-90 reverse the 5-FU induced elevation of all three of these cytokines (FIGS. 8, 9, and 10). IL-12 is a cytokine linked to generation of an immune response. Another cytokine associated with generation of an immune response is IL-5. TK-90 reverse the 5-FU induced elevation of IL-12 and IL5 (FIGS. 11, 12 and 13). IL-10 is a cytokine that plays a central role in limiting host immune response. TK-90 reverses the elevation of IL-10 induced by the 5-FU treatment possibly allowing an immune response to proceed to potentially clear damaged tissue (FIG. 14). GM-CSF and M-CSF both stimulate cell mediators of inflammation. TK-90 reverse the 5-FU induced elevation of both GM-CSF and […] (FIGS. 15 and 16). MIP-2, and KC are chemokines that function much like GM-CSF, and M-CSF to stimulate cell mediators of inflammation TK-90 reverse the 5-FU induced elevation of the chemokines (FIGS. 17 and 18). 5-FU decreases eotaxin, a chemokine that recruits immune-related mediators like eosinophils into inflammatory sites (FIG. 19). TK-90 reverses this decrease.

plasma citrulline = assay: Plasma citrulline after 5-FU (LC/MS/MS-Isotope assay), surrogate marker for mucositis; format: in vivo, C57BL/6 female mice; details: Day 3
Protocol: The chemotherapeutic challenge was diminished plasma citrulline by 5-FU treatment. The aim of this study was to explore whether a uridine phosphorylase inhibitor could prevent lowered plasma citrulline induced by 5-FU.
TK-90 solution was prepared at a concentration of 500 mg/mL in sterile PBS. Eight animals were used for Groups 1,2 and 3.
Osmotic pumps were placed inside the subcutaneous tunnel. Incision was sealed with Vetbond tissue adhesive and wound clips.
Blood collections were done to animals anesthetized with ketamine (ip 100 mg/kg). Whole blood (˜0.8 mL) was drawn through the retro-orbital sinus using a heparin coated micro-hematocrit tube and collected into a heparin microtainer tube. Blood samples were transferred into fresh 1.5 mL microcentrifuge tubes and centrifuged for 5 minutes at 10,000×g using an Eppendorf Minispin Plus stored in a 4° C. refrigerator. Following collection of the plasma samples, the animals were sacrificed on Day 3 by cervical dislocation and properly disposed. […]
Thawed plasma samples from the study were analyzed for citrulline using a published LC/MS/MS-Isotope assay. (Jones et al., Development and validation of a LC-MS/MS assay for quantitation of plasma citrulline for application to animal models of the acute radiation syndrome across multiple species,” Anal Bioanal Chem. (2014) 406(19):4663-75).

uridine = assay: Systemic uridine after administration of TK-90; format: in vivo
[6] = patients who receive 5-FU for their disease; cited from earlier work

O=c1ccn([C@@H]2O[C@H](CO)[C@@H](O)[C@H]2O)c(=O)[nH]1 [uridine]
toxicity of continuous infusions of high-dose uridine ([1]; continuous infusion): high fever, cellulitis, and superior vena cava syndrome | toxicity of orally administered uridine ([1]; oral, high-dose, clinical studies): considerable GI dysfunction; also recorded: severe patient diarrhea, phlebitis and pyrogenic reactions | half-life of administered uridine [2]: ~3 min | percent change in weight Day 5 versus Day 0 (5-FU induced weight loss; 80 mg/kg 5-FU qdx5 ip with 750 mg/kg uridine bid, compared to 5-FU alone): statistically significant but much less

Cc1cn2c(nc1=O)O[C@H]1[C@H](O)[C@@H](CO)O[C@H]12 [TK-90]
side effects [3]: no known side effects | percent weight change on Day 5 versus Day 0 [4]: protected from the weight loss | plasma GM-CSF [5]: highly significantly different; also recorded: reverses the increase in plasma GM-CSF | plasma IL-1β [5]: reverses the increase in plasma IL-1β | plasma IL-2 [5]: reverses the increase in plasma IL-2 | plasma IL-6 [5]: reverses the increase in plasma IL-6 | plasma IL-9 [5]: highly significantly different; also recorded: reverses the increase in plasma IL-9 | plasma IL-10 [5]: highly significantly different; also recorded: reverses the increase in plasma IL-10 | plasma IL-12 (P40) [5]: highly significantly different; also recorded: reverses the increase in plasma IL-12 (P40) | plasma IL-12 (P70) [5]: highly significantly different; also recorded: reverses the increase in plasma IL-12 (P70) | plasma IL-15 [5]: highly significantly different; also recorded: reverses the increase in plasma IL-15 | plasma KC (keratinocytes-derived chemokine) [5]: significantly different; also recorded: reverses the increase in plasma KC | plasma M-CSF [5]: reverses the increase in plasma M-CSF | plasma MIP-2 [5]: reverses the increase in plasma MIP-2 | plasma TNF-α [5]: reverses the increase in plasma TNF-α | plasma eotaxin [5]: reverses the decrease in plasma eotaxin | plasma citrulline concentration (plasma citrulline; 200 mg/kg 5-FU ip plus 6000 mg/kg TK-90 by osmotic pump over 24 hours starting 4 hours post 5-FU, compared to 5-FU alone): reverses the decrease in plasma citrulline; also recorded: robust, statistically significant rebound in plasma citrulline | systemic uridine (uridine): increases systemic uridine | percent change in weight Day 5 versus Day 0 (5-FU induced weight loss; 80 mg/kg 5-FU qdx5 ip with 750 mg/kg uridine and 120 mg/kg TK-90 bid, compared to 5-FU alone): protected from the weight loss

O=c1[nH]cc(F)c(=O)[nH]1 [Compound 5-FU, 5-flurouracil]
plasma citrulline concentration (plasma citrulline; 200 mg/kg 5-FU ip alone, compared to PBS vehicle control): significant reduction in citrulline | percent change in weight Day 5 versus Day 0 (5-FU induced weight loss; 80 mg/kg 5-FU qdx5 ip alone, compared to PBS vehicle control): robust weight loss | patients who develop mucositis [6]: Approximately 80%
